Assays:
Assay type in all cases: in vivo
[1] = test system: redroot pigweed (Amaranthus retroflexus, AMARE); test: Pre-emerge test, greenhouse herbicide activity screening; conditions: rating scale 0-100, 14 days after application
Summary of the method: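 Herbicidal damage is scored 0 (none) to 100 (complete plant death) two weeks after a simulated field spray. Rates span 15–1000 g ai/ha, delivered in acetone at 187 l/ha. For post-emergence treatments, plants have 2–3 leaves and the spray carries 0.25% v/v non-ionic surfactant.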

[2] = test system: barnyardgrass (Echinochloa crus-galli, ECHCG); test: as above; conditions: rating scale 0-100, 14 days after application
Summary of the method: (§1)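 Sandy loam pots; pre-emerge: sown 1 d pre-spray, surface-watered after, then bottom-watered. Post-emerge: sown 8–21 d before, 2–3 leaf stage, + 0.25% v/v NIS, bottom-watered. Acetone, 187 l/ha track spray, 15–1000 g ai/ha. 0–100 injury score, day 14.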

[3] = test system: green foxtail (Setaria viridis, SETVI); test: as above; conditions: rating scale 0-100, 14 days after application
Summary of the method: as §1

[4] = test system: ivyleaf morningglory (Ipomoea hederacea, IPOHE); test: as above; conditions: rating scale 0-100, 14 days after application
Summary of the method: as §1

[5] = test system: johnsongrass (Sorghum halepense, SORHA); test: as above; conditions: rating scale 0-100, 14 days after application
Summary of the method: as §1

[6] = test system: lambsquarters (Chenopodium album, CHEAL); test: as above; conditions: rating scale 0-100, 14 days after application
Summary of the method: as §1

[7] = test system: large crabgrass (Digitaria sanguinalis, DIGSA); test: as above; conditions: rating scale 0-100, 14 days after application
Summary of the method: as §1

[8] = test system: sicklepod (Cassia obtusifolia, CASOB); test: as above; conditions: rating scale 0-100, 14 days after application
Summary of the method: as §1

[9] = test system: velvetleaf (Abutilon theophrasti, ABUTH); test: as above; conditions: rating scale 0-100, 14 days after application
Summary of the method: as §1

[10] = test system: field corn (Zea mays L., var. Dekalb 535, CORN); test: Pre-emerge test, crop safety; conditions: rating scale 0-100, 14 days after application
Summary of the method: as §1

[11] = test system: upland rice (Oryza sp., var. Tebonnet, RICE); test: Pre-emerge test, crop safety; conditions: rating scale 0-100, 14 days after application
Summary of the method: as §1

[12] = test system: barnyardgrass (Echinochloa crus-galli, ECHCG); test: Post-emerge test, greenhouse herbicide activity screening; conditions: rating scale 0-100 (0 no damage, 100 complete death), 14 days after application
Summary of the method: (§2)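 Plants grown in 10 cm pots of sandy loam mix received acetone-dissolved compounds through a moving flat-fan nozzle. Doses ranged from 15 to 1000 g ai/ha. Pre-emerge pots were seeded one day earlier, post-emerge pots 8–21 days earlier. Fourteen days on, each pot was graded 0–100 for damage.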

[13] = test system: common ragweed (Ambrosia artemisizfolia L., AMBEL); test: as above; conditions: rating scale 0-100 (0 no damage, 100 complete death), 14 days after application
Summary of the method: as §2

[14] = test system: green foxtail (Setaria viridis, SETVI); test: as above; conditions: rating scale 0-100 (0 no damage, 100 complete death), 14 days after application
Summary of the method: as §2

[15] = test system: ivyleaf morningglory (Ipomoea hederacea, IPOHE); test: as above; conditions: rating scale 0-100 (0 no damage, 100 complete death), 14 days after application
Summary of the method: as §2

[16] = test system: johnsongrass (Sorghum halepense, SORHA); test: as above; conditions: rating scale 0-100 (0 no damage, 100 complete death), 14 days after application
Summary of the method: as §2

[17] = test system: lambsquarters (Chenopodium album, CHEAL); test: as above; conditions: rating scale 0-100 (0 no damage, 100 complete death), 14 days after application
Summary of the method: as §2

[18] = test system: large crabgrass (Digitaria sanguinalis, DIGSA); test: as above; conditions: rating scale 0-100 (0 no damage, 100 complete death), 14 days after application
Summary of the method: as §2

[19] = test system: redroot pigweed (Amaranthus retroflexus, AMARE); test: as above; conditions: rating scale 0-100 (0 no damage, 100 complete death), 14 days after application
Summary of the method: as §2

[20] = test system: sicklepod (Cassia obtusifolia, CASOB); test: as above; conditions: rating scale 0-100 (0 no damage, 100 complete death), 14 days after application
Summary of the method: as §2

[21] = test system: velvetleaf (Abutilon theophrasti, ABUTH); test: as above; conditions: rating scale 0-100 (0 no damage, 100 complete death), 14 days after application
Summary of the method: as §2

[22] = test system: field corn (Zea mays L., var. Dekalb 535, CORN); test: Post-emerge test, crop safety; conditions: rating scale 0-100 (0 no damage, 100 complete death), 14 days after application
Summary of the method: as §1

[23] = test system: upland rice (Oryza sp., var. Tebonnet, RICE); test: Post-emerge test, crop safety; conditions: rating scale 0-100 (0 no damage, 100 complete death), 14 days after application
Summary of the method: as §1

## COc1c(Cl)cc(F)c(-n2c(=O)cc(C(F)(F)F)n(C)c2=O)c1CC(Cl)C(=O)OCC(F)(F)C(F)F (stereo not shown) [14-22]
[1]; 63 g ai/ha
  Pre-emerge herbicidal activity, phytotoxicity rating AMARE: 100
[1]; 250 g ai/ha
  Pre-emerge herbicidal activity, phytotoxicity rating AMARE: 100
[2]; 63 g ai/ha
  Pre-emerge herbicidal activity, phytotoxicity rating ECHCG: 0
[2]; 250 g ai/ha
  Pre-emerge herbicidal activity, phytotoxicity rating ECHCG: 0
[3]; 63 g ai/ha
  Pre-emerge herbicidal activity, phytotoxicity rating SETVI: 0
[3]; 250 g ai/ha
  Pre-emerge herbicidal activity, phytotoxicity rating SETVI: 0
[4]; 63 g ai/ha
  Pre-emerge herbicidal activity, phytotoxicity rating IPOHE: 0
[4]; 250 g ai/ha
  Pre-emerge herbicidal activity, phytotoxicity rating IPOHE: 0
[5]; 63 g ai/ha
  Pre-emerge herbicidal activity, phytotoxicity rating SORHA: 0
[5]; 250 g ai/ha
  Pre-emerge herbicidal activity, phytotoxicity rating SORHA: 0
[6]; 63 g ai/ha
  Pre-emerge herbicidal activity, phytotoxicity rating CHEAL: 20
[6]; 250 g ai/ha
  Pre-emerge herbicidal activity, phytotoxicity rating CHEAL: 90
[7]; 63 g ai/ha
  Pre-emerge herbicidal activity, phytotoxicity rating DIGSA: 0
[7]; 250 g ai/ha
  Pre-emerge herbicidal activity, phytotoxicity rating DIGSA: 50
[8]; 63 g ai/ha
  Pre-emerge herbicidal activity, phytotoxicity rating CASOB: 0
[8]; 250 g ai/ha
  Pre-emerge herbicidal activity, phytotoxicity rating CASOB: 0
[9]; 63 g ai/ha
  Pre-emerge herbicidal activity, phytotoxicity rating ABUTH: 0
[9]; 250 g ai/ha
  Pre-emerge herbicidal activity, phytotoxicity rating ABUTH: 70
[10]; 63 g ai/ha
  Pre-emerge phytotoxicity rating, crop damage CORN: 0
[10]; 250 g ai/ha
  Pre-emerge phytotoxicity rating, crop damage CORN: 0
[11]; 63 g ai/ha
  Pre-emerge phytotoxicity rating, crop damage RICE: 0
[11]; 250 g ai/ha
  Pre-emerge phytotoxicity rating, crop damage RICE: 10
[12]; Rate 63 g ai/ha
  Post-emerge Herbicidal Activity, phytotoxicity rating ECHCG: 100
[12]; Rate 250 g ai/ha
  Post-emerge Herbicidal Activity, phytotoxicity rating ECHCG: 100
[13]; Rate 63 g ai/ha
  Post-emerge Herbicidal Activity, phytotoxicity rating AMBEL: 100
[13]; Rate 250 g ai/ha
  Post-emerge Herbicidal Activity, phytotoxicity rating AMBEL: 100
[14]; Rate 63 g ai/ha
  Post-emerge Herbicidal Activity, phytotoxicity rating SETVI: 30
[14]; Rate 250 g ai/ha
  Post-emerge Herbicidal Activity, phytotoxicity rating SETVI: 60
[15]; Rate 63 g ai/ha
  Post-emerge Herbicidal Activity, phytotoxicity rating IPOHE: 10
[15]; Rate 250 g ai/ha
  Post-emerge Herbicidal Activity, phytotoxicity rating IPOHE: 80
[16]; Rate 63 g ai/ha
  Post-emerge Herbicidal Activity, phytotoxicity rating SORHA: 40
[16]; Rate 250 g ai/ha
  Post-emerge Herbicidal Activity, phytotoxicity rating SORHA: 60
[17]; Rate 63 g ai/ha
  Post-emerge Herbicidal Activity, phytotoxicity rating CHEAL: 50
[17]; Rate 250 g ai/ha
  Post-emerge Herbicidal Activity, phytotoxicity rating CHEAL: 90
[18]; Rate 63 g ai/ha
  Post-emerge Herbicidal Activity, phytotoxicity rating DIGSA: 80
[18]; Rate 250 g ai/ha
  Post-emerge Herbicidal Activity, phytotoxicity rating DIGSA: 95
[19]; Rate 63 g ai/ha
  Post-emerge Herbicidal Activity, phytotoxicity rating AMARE: 50
[19]; Rate 250 g ai/ha
  Post-emerge Herbicidal Activity, phytotoxicity rating AMARE: 100
[20]; Rate 63 g ai/ha
  Post-emerge Herbicidal Activity, phytotoxicity rating CASOB: 0
[20]; Rate 250 g ai/ha
  Post-emerge Herbicidal Activity, phytotoxicity rating CASOB: 50
[21]; Rate 63 g ai/ha
  Post-emerge Herbicidal Activity, phytotoxicity rating ABUTH: 30
[21]; Rate 250 g ai/ha
  Post-emerge Herbicidal Activity, phytotoxicity rating ABUTH: 100
[22]; Rate 63 g ai/ha
  Post-emerge phytotoxicity rating CORN (crop damage): 10
[22]; Rate 250 g ai/ha
  Post-emerge phytotoxicity rating CORN (crop damage): 50
[23]; Rate 63 g ai/ha
  Post-emerge phytotoxicity rating RICE (crop damage): 0
[23]; Rate 250 g ai/ha
  Post-emerge phytotoxicity rating RICE (crop damage): 10

Source: patent US6355799B1, “Substituted benzene compounds, process for their preparation, and herbicidal and defoliant compositions containing them” (ISK Americas Incorporated, priority 1997, dated 2002)
